Where a SMILES comes first, the peptide text is derived from it. The star is where a group is joined. Cbz = O=C(OCc1ccccc1)*
Tests used:
3βHSD1 (367N) = test: Western blot of endogenous 3βHSD1 protein in LAPC4 after degradation inhibitor; assay type: cell-based, human; conditions: LAPC4, 10 μM
From the text: For Western blot analysis, whole cell protein extract was harvested using RIPA buffer (Sigma-Aldrich) with protease inhibitor cocktail (Roche). […] The protein was transferred to a PVDF membrane and was detected by mouse anti-3βHSD1 (Sigma), rabbit anti-HA (Santa Cruz Biotechnology, Santa Cruz, Calif.), and mouse anti-β-actin (Sigma) antibodies. […]

[1] = test system: polyubiquitinated 3βHSD1 (367N); test: Anti-ubiquitin immunoprecipitation in LAPC4; assay type: cell-based, human; conditions: LAPC4, 10 μM; 8 hours
Experimental: Pre-cleared lysate was incubated with mouse anti-ubiquitin antibody (Santa Cruz) at 4° C. for 3 hours and followed by adding 40 μl of Protein AG UltraLink Resin (Thermo Scientific) for another hour for pull down. After extensive washing with lysis buffer, the purified proteins were eluted with 25 μl 2×SDS sample buffer and analyzed by Western blot.

3βHSD1 (367T) = test: Western blot of endogenous 3βHSD1 protein in LNCaP after proteasome inhibitor; assay type: cell-based, human; conditions: 10 μM, 8 hours
Experimental: For Western blot analysis, whole cell protein extract was harvested using RIPA buffer (Sigma-Aldrich) with protease inhibitor cocktail (Roche). Protein concentration was determined by BCA Protein Assay Reagent (Thermo Scientific, Rockford, Ill.), and 20 μg protein was resolved by 8.5% SDS-PAGE. The protein was transferred to a PVDF membrane and was detected by mouse anti-3βHSD1 (Sigma), rabbit anti-HA (Santa Cruz Biotechnology, Santa Cruz, Calif.), and mouse anti-β-actin (Sigma) antibodies. To determine the role of the ERAD pathway in 3βHSD1 stability, cells were treated with Eeyarestatin (Sigma) for 6 hours before harvesting cell lysate.

[2] = test system: polyubiquitinated 3βHSD1(367T); test: Anti-ubiquitin immunoprecipitation in LNCaP; assay type: cell-based, human; conditions: 10 uM, 8 hours
3βHSD1 = test: Lentiviral shRNA knockdown, 3βHSD1 immunoblot in LNCaP; assay type: cell-based, human; conditions: stable lentiviral expression
Experimental: Lentiviral vector construction, viral packaging and infection were performed as previously described. Chang et al., Proc. Natl. Acad. Sci. USA, 108, 13728-13733 (2011). Briefly, […] miR30-styled shRNA sequences (#1: 5′-[…] […]-3′ (SEQ ID NO: 9); #2: 5′-[…] […]-3′ (SEQ ID NO: 10)) against HSD3B1 were PCR amplified and cloned into the pGIPZ vector (Open Biosystems, Huntsville, Ala.) and confirmed by sequencing. Virus packaging was carried out in 293T cells by co-transfecting 10 μg each of pGIPZ, pMD2.G, and psPAX2 vector. To increase transduction efficiency, 30 mL supernatant containing lentiviral particles were collected, filtered with a 0.45 μm nitrocellulose membrane and concentrated by ultracentrifugation at 19,000 rpm for 2 hours and 20 minutes at room temperature without brake. […]
For Western blot analysis, whole cell protein extract was harvested using RIPA buffer (Sigma-Aldrich) with protease inhibitor cocktail (Roche). Protein concentration was determined by BCA Protein Assay Reagent (Thermo Scientific, Rockford, Ill.), and 20 μg protein was resolved by 8.5% SDS-PAGE. The protein was transferred to a PVDF membrane and was detected by mouse anti-3βHSD1 (Sigma), rabbit anti-HA (Santa Cruz Biotechnology, Santa Cruz, Calif.), and mouse anti-β-actin (Sigma) antibodies. […]

LNCaP xenografts = test: LNCaP xenograft CRPC growth in orchiectomized mice with DHEA pellet; assay type: in vivo, mouse; conditions: orchiectomy and DHEA pellet
Experimental: Mouse xenograft studies and abiraterone acetate treatment were done as described in detail previously. Li et al., Clin Cancer Res 18, 3571-3579 (2012). Briefly, male NOD/SCID mice 6 to 8 weeks of age were obtained from the UT Southwestern Animal Resources Center, underwent surgical orchiectomy and a DHEA pellet (5 mg 90-day sustained-release) implantation and 2 days later underwent subcutaneous injection with 7×10^6 LAPC4 cells. Tumors reaching 300 mm^3 volume were treated with intraperitoneal abiraterone acetate or vehicle (n=8 mice per treatment) once daily for 5 days per week for 4 weeks. Tumors were fresh frozen upon mouse sacrifice. For the studies of mutant 3βHSD1 knockdown, LNCaP cells (7×10^6) stably expressing shHSD3B1 #1, #2 and shCTRL were subcutaneously injected with matrigel into eugonadal NOD/SCID mice (n=15 per group). Mice with tumors reaching 100 mm^3 volume underwent surgical castration and DHEA pellet implantation. Time from castration to tumor volume ≥600 mm^3 was assessed. For the comparison between wild type and mutant 3βHSD1, LAPC4 cells (7×10^6) stably expressing pLVX-Tight-Puro-HSD3B1 (367N) or pLVX-Tight-Puro-HSD3B1 (367T) were subcutaneously injected into surgically orchiectomized NOD/SCID mice supplemented with a DHEA (5 mg 90-day sustained-release) pellet. Tumor diameters were measured by digital calipers two or three times per week.

## CC1(C)C(N(O)C(=O)Nc2ccc(Cl)cc2)N(c2ccc(Cl)cc2)C(=O)N1CC(=O)N/N=C/C=C/c1ccc([N+](=O)[O-])o1 (stereo not drawn) [Eeyarestatin I]
3βHSD1 (367N)
  endogenous 3βHSD1 protein: increases endogenous 3βHSD1 protein

## CC(C)C[C@@H](C=O)NC(=O)[C@H](CC(C)C)NC(=O)[C@H](CC(C)C)NC(=O)OCc1ccccc1 [MG132] (Cbz-Leu-Leu-Leu-aldehyde)
[1]
  polyubiquitinated 3βHSD1 (367N) protein: increase in polyubiquitinated 3βHSD1 (367N) protein
3βHSD1 (367T)
  3βHSD1 (367T) protein level: no 3βHSD1 (367T) protein increase
3βHSD1 (367N); 8 hours
  3βHSD1 (367N) protein level: reverses 3βHSD1 (367N) protein loss
[2]
  polyubiquitinated 3βHSD1(367T) protein: no increase in polyubiquitinated 3βHSD1(367T) protein

B1: shHSD3B1 #2: lentiviral miR30-styled shRNA against HSD3B1 (SEQ ID NO: 10) (nucleic acid)
chain: TGCTGTTGACAGTGAGCGAAGAGGAAAGACCATGTGGTTTTAGTGAAGCCACAGATGTAAAACCACATGGTCTTTCCTCTGTGCCTACTGCCTCGGA
3βHSD1
  3βHSD1 protein expression: silences 3βHSD1 protein expression
LNCaP xenografts
  CRPC growth (days from orchiectomy to tumor volume ≥600 mm^3): blocks CRPC growth

B2: shHSD3B1 #1: lentiviral miR30-styled shRNA against HSD3B1 (SEQ ID NO: 9) (nucleic acid)
chain: TGCTGTTGACAGTGAGCGACCTCATACAGAAAGTGACAAGTAGTGAAGCCACAGATGTACTTGTCACTTTCTGTATGAGGCTGCCTACTGCCTCGGA
3βHSD1
  3βHSD1 protein expression: silences 3βHSD1 protein expression
LNCaP xenografts
  CRPC growth (days from orchiectomy to tumor volume ≥600 mm^3): blocks CRPC growth
